Measurements taken from article PMC5278571, “Optimal doses of caspofungin during continuous venovenous hemodiafiltration in critically ill patients” (Critical Care, 2017).
Read-outs that look alike come from different tables or passages of the source.

Experiment: Pharmacokinetics of caspofungin during continuous venovenous hemodiafiltration (CVVHD)
Type: in vivo, human
Conditions: for Vd / t½ / AUC0-24 Arterial / AUC0-24 Difference venous to arterial (%) / AUC0-24 Venous / Cl / Cmax / Ctrough: steady state, CVVHD; for t½: elimination
Protocol: The aim of the present study was to describe the pharmacokinetics of caspofungin in 12 critically ill adult patients with suspected or proven invasive candidiasis who were receiving continuous venovenous hemodiafiltration (CVVHD).
CVVHD was performed using a polysulfone hemofilter (Fresenius, Germany). Caspofungin was administered at usual doses. Pre-filter and post-filter blood, ultradiafiltrate, and urine samples were collected at steady state on day 3 or later, before the dose infusion started, and 0.5, 1, 1.5, 2, 4, 6, 8, and 24 h after the infusion ended.

With `CC[C@H](C)C[C@H](C)CCCCCCCCC(=O)N[C@H]1C[C@@H](O)[C@@H](NCCN)NC(=O)[C@@H]2[C@@H](O)CCN2C(=O)[C@H]([C@H](O)CCN)NC(=O)[C@H]([C@H](O)[C@@H](O)c2ccc(O)cc2)NC(=O)[C@@H]2C[C@@H](O)CN2C(=O)[C@H]([C@@H](C)O)NC1=O` [caspofungin] the Vd (human, in vivo, iv, Mean ± SD of 12 patients, SD, read-out: Vd) was 16.4 ± 5.4 L, the “Mean concentration in the post-filter line compared with the pre-filter line” value (n = 12 patients, rules out adsorption to the filter) was “slightly higher” and the t½ (patient 1) was 27.4 h. For the same compound, the “AUC0-24 Arterial” value (patient 1) was 140.0 µg·h/mL, the “AUC0-24 Difference venous to arterial (%)” value (patient 1) was 29% and the “AUC0-24 Venous” value (patient 1) was 180.0 µg·h/mL. It also gave a Cl (patient 1) of 0.356 L/h, a Cmax (patient 1) of 12500 ng/mL and a Ctrough (patient 1) of 3470 ng/mL. For the same compound, the Vd (patient 1) was 14.1 L, the t½ (patient 2) was 21.0 h and the “AUC0-24 Arterial” value (patient 2) was 88.3 µg·h/mL. For the same compound, the “AUC0-24 Difference venous to arterial (%)” value (patient 2) was 20%, the “AUC0-24 Venous” value (patient 2) was 106.0 µg·h/mL and the Cl (patient 2) was 0.567 L/h. The Cmax (patient 2) was 7800 ng/mL, the Ctrough (patient 2) was 2100 ng/mL and the Vd (patient 2) was 17.1 L. For the same compound, the t½ (patient 3) was 18.8 h, the “AUC0-24 Arterial” value (patient 3) was 124.0 µg·h/mL and the “AUC0-24 Difference venous to arterial (%)” value (patient 3) was 23%. The “AUC0-24 Venous” value (patient 3) was 152.0 µg·h/mL, the Cl (patient 3) was 0.402 L/h and the Cmax (patient 3) was 8800 ng/mL. It also gave a Ctrough (patient 3) of 3100 ng/mL, a Vd (patient 3) of 10.9 L and a t½ (patient 4) of 24.3 h. The “AUC0-24 Arterial” value (patient 4) was 65.4 µg·h/mL, the “AUC0-24 Difference venous to arterial (%)” value (patient 4) was 18% and the “AUC0-24 Venous” value (patient 4) was 77.4 µg·h/mL. It also gave a Cl (patient 4) of 0.765 L/h, a Cmax (patient 4) of 6900 ng/mL and a Ctrough (patient 4) of 1300 ng/mL. For the same compound, the Vd (patient 4) was 26.8 L, the t½ (patient 5) was 16.5 h and the “AUC0-24 Arterial” value (patient 5) was 68.0 µg·h/mL. The “AUC0-24 Difference venous to arterial (%)” value (patient 5) was 32%, the “AUC0-24 Venous” value (patient 5) was 90.0 µg·h/mL and the Cl (patient 5) was 0.735 L/h. The Cmax (patient 5) was 4800 ng/mL, the Ctrough (patient 5) was 1500 ng/mL and the Vd (patient 5) was 17.5 L. The t½ (patient 6) was 13.8 h, the “AUC0-24 Arterial” value (patient 6) was 102.0 µg·h/mL and the “AUC0-24 Difference venous to arterial (%)” value (patient 6) was 5%. For the same compound, the “AUC0-24 Venous” value (patient 6) was 107.0 µg·h/mL, the Cl (patient 6) was 0.683 L/h and the Cmax (patient 6) was 10700 ng/mL. For the same compound, the Ctrough (patient 6) was 2500 ng/mL, the Vd (patient 6) was 13.6 L and the t½ (patient 7) was 13.6 h. For the same compound, the “AUC0-24 Arterial” value (patient 7) was 65.6 µg·h/mL, the “AUC0-24 Difference venous to arterial (%)” value (patient 7) was 20% and the “AUC0-24 Venous” value (patient 7) was 78.8 µg·h/mL. The Cl (patient 7) was 0.762 L/h, the Cmax (patient 7) was 8300 ng/mL and the Ctrough (patient 7) was 1600 ng/mL. For the same compound, the Vd (patient 7) was 15.0 L, the t½ (patient 8) was 19.3 h and the “AUC0-24 Arterial” value (patient 8) was 100.0 µg·h/mL. The “AUC0-24 Difference venous to arterial (%)” value (patient 8) was 13%, the “AUC0-24 Venous” value (patient 8) was 113.0 µg·h/mL and the Cl (patient 8) was 0.499 L/h. It also gave a Cmax (patient 8) of 9500 ng/mL, a Ctrough (patient 8) of 2700 ng/mL and a Vd (patient 8) of 13.9 L. The t½ (patient 9) was 14.3 h, the “AUC0-24 Arterial” value (patient 9) was 102.0 µg·h/mL and the “AUC0-24 Difference venous to arterial (%)” value (patient 9) was 25%. The “AUC0-24 Venous” value (patient 9) was 127.0 µg·h/mL, the Cl (patient 9) was 0.685 L/h and the Cmax (patient 9) was 9200 ng/mL. It also gave a Ctrough (patient 9) of 2300 ng/mL, a Vd (patient 9) of 14.1 L and a t½ (patient 10) of 15.0 h. For the same compound, the “AUC0-24 Arterial” value (patient 10) was 121.0 µg·h/mL, the “AUC0-24 Difference venous to arterial (%)” value (patient 10) was 17% and the “AUC0-24 Venous” value (patient 10) was 142.0 µg·h/mL. The Cl (patient 10) was 0.578 L/h, the Cmax (patient 10) was 12600 ng/mL and the Ctrough (patient 10) was 2900 ng/mL. The Vd (patient 10) was 12.5 L, the t½ (patient 11) was 26.2 h and the “AUC0-24 Arterial” value (patient 11) was 190.0 µg·h/mL. The “AUC0-24 Difference venous to arterial (%)” value (patient 11) was 18%, the “AUC0-24 Venous” value (patient 11) was 224.0 µg·h/mL and the Cl (patient 11) was 0.368 L/h. The Cmax (patient 11) was 11500 ng/mL, the Ctrough (patient 11) was 4000 ng/mL and the Vd (patient 11) was 13.9 L. For the same compound, the t½ (patient 12) was 16.5 h, the “AUC0-24 Arterial” value (patient 12) was 60.1 µg·h/mL and the “AUC0-24 Difference venous to arterial (%)” value (patient 12) was 24%. For the same compound, the “AUC0-24 Venous” value (patient 12) was 74.5 µg·h/mL, the Cl (patient 12) was 1.165 L/h and the Cmax (patient 12) was 8500 ng/mL. For the same compound, the Ctrough (patient 12) was 1900 ng/mL, the Vd (patient 12) was 27.7 L and the “Caspofungin in ultradiafiltrate samples” value (ultradiafiltrate, CVVHD with polysulfone hemofilter, HPLC) was “negligible”. For the same compound, the “Caspofungin in urine samples” value (urine, patients on CVVHD, HPLC) was “negligible”.
